Laboratory results from PubChem BioAssay (NCI).
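Interpolation was linear, between the two tested concentrations surrounding the appropriate level; five concentrations were tested over 48 hours in 96-well plates. Here, GI50 denotes the concentration required for 50% inhibition of growth. TGI: total growth inhibition.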

What was measured:
Experiment in all cases: growth of human tumour cells (NCI), 48 h
[1] = system: 786-0 renal
[2] = system: A498 renal
[3] = system: A549 NSCLC
[4] = system: ACHN renal
[5] = system: BT-549 breast
[6] = system: CAKI-1 renal
[7] = system: CCRF-CEM leukemia
[8] = system: COLO 205 colon
[9] = system: DU-145 prostate
[10] = system: EKVX NSCLC
[11] = system: HCC-2998 colon
[12] = system: HCT-116 colon
[13] = system: HCT-15 colon
[14] = system: HL-60(TB) leukemia
[15] = system: HOP-62 NSCLC
[16] = system: HOP-92 NSCLC
[17] = system: HS 578T breast
[18] = system: HT29 colon
[19] = system: IGROV1 ovarian
[20] = system: K-562 leukemia
[21] = system: KM12 colon
[22] = system: LOX IMVI melanoma
[23] = system: M14 melanoma
[24] = system: MALME-3M melanoma
[25] = system: MCF7 breast
[26] = system: MDA-MB-231 breast
[27] = system: MDA-MB-435
[28] = system: MDA-MB-468 breast
[29] = system: MOLT-4 leukemia
[30] = system: NCI-H226 lung
[31] = system: NCI-H23 lung
[32] = system: NCI-H460 lung
[33] = system: NCI-H522 lung
[34] = system: NCI/ADR-RES ovarian
[35] = system: OVCAR-3 ovarian
[36] = system: OVCAR-4 ovarian
[37] = system: OVCAR-5 ovarian
[38] = system: OVCAR-8 ovarian
[39] = system: PC-3 prostate
[40] = system: RPMI-8226 leukemia
[41] = system: RXF 393 renal
[42] = system: SF-268 CNS
[43] = system: SF-295 CNS
[44] = system: SF-539 CNS
[45] = system: SK-MEL-2 melanoma
[46] = system: SK-MEL-28 melanoma
[47] = system: SK-MEL-5 melanoma
[48] = system: SK-OV-3 ovarian
[49] = system: SN12C renal
[50] = system: SNB-19 CNS
[51] = system: SNB-75 CNS
[52] = system: SW-620 colon
[53] = system: T-47D breast
[54] = system: TK-10 renal
[55] = system: U251 CNS
[56] = system: UACC-257 melanoma
[57] = system: UACC-62 melanoma
[58] = system: UO-31 renal

For `COC1=C[C@]23CCC(=O)N2CCc2cc4c(cc2[C@@H]3[C@@H]1OC(=O)[C@H](C)O)OCO4`, the GI50 [1] was 11 µM, the TGI [1] was 42.9 µM and the GI50 [2] was 6.02 µM. The TGI [2] was 32.1 µM, the GI50 [3] was 7.13 µM and the TGI [3] was 50.6 µM. For the same compound, the GI50 [4] was 3.65 µM, the TGI [4] was 30.4 µM and the GI50 [5] was 10.5 µM. The TGI [5] was 32.8 µM, the GI50 [6] was 14.1 µM and the TGI [6] was greater than 52 µM. It also gave a GI50 [7] of 4.77 µM, a TGI [7] of 41.6 µM and a GI50 [8] of 7.67 µM. The TGI [8] was 31.5 µM, the GI50 [9] was 12.1 µM and the TGI [9] was greater than 52 µM. For the same compound, the GI50 [10] was 10.5 µM, the TGI [10] was greater than 52 µM and the GI50 [11] was 2.27 µM. It also gave a TGI [11] of 10.5 µM, a GI50 [12] of 2.33 µM and a TGI [12] greater than 52 µM. The GI50 [13] was 5.08 µM, the TGI [13] was 25 µM and the GI50 [14] was 2.01 µM. It also gave a TGI [14] greater than 52 µM, a GI50 [15] of 10.2 µM and a TGI [15] greater than 52 µM. For the same compound, the GI50 [16] was 6.12 µM, the TGI [16] was 33.4 µM and the GI50 [17] was 8.04 µM. It also gave a TGI [17] of 35.6 µM, a GI50 [18] of 4.41 µM and a TGI [18] greater than 52 µM. The GI50 [19] was 6.52 µM, the TGI [19] was greater than 52 µM and the GI50 [20] was 2.61 µM. The TGI [20] was greater than 52 µM, the GI50 [21] was 10.4 µM and the TGI [21] was greater than 52 µM. It also gave a GI50 [22] of 2.31 µM, a TGI [22] of 13.3 µM and a GI50 [23] of 6.74 µM. It also gave a TGI [23] of 15.8 µM, a GI50 [24] of 2.62 µM and a TGI [24] of 16.2 µM. For the same compound, the GI50 [25] was 1.54 µM, the TGI [25] was 10.2 µM and the GI50 [26] was 13.2 µM. It also gave a TGI [26] greater than 52 µM, a GI50 [27] of 11.2 µM and a TGI [27] of 45.5 µM. For the same compound, the GI50 [28] was 2.3 µM, the TGI [28] was 15.1 µM and the GI50 [29] was 1.87 µM. For the same compound, the TGI [29] was greater than 52 µM, the GI50 [30] was 3.52 µM and the TGI [30] was 29.8 µM. The GI50 [31] was 7.5 µM, the TGI [31] was 24.5 µM and the GI50 [32] was 1.65 µM. It also gave a TGI [32] of 13.1 µM, a GI50 [33] of 3.89 µM and a TGI [33] of 17.7 µM. The GI50 [34] was 13.7 µM, the TGI [34] was greater than 52 µM and the GI50 [35] was 4.11 µM. For the same compound, the TGI [35] was 42.2 µM, the GI50 [36] was 8.79 µM and the TGI [36] was greater than 52 µM. It also gave a GI50 [37] of 11.4 µM, a TGI [37] greater than 52 µM and a GI50 [38] of 11.7 µM. It also gave a TGI [38] of 48.9 µM, a GI50 [39] of 6.71 µM and a TGI [39] of 44.6 µM. It also gave a GI50 [40] of 3.23 µM, a TGI [40] of 21 µM and a GI50 [41] of 1.63 µM. It also gave a TGI [41] of 5.85 µM, a GI50 [42] of 15.3 µM and a TGI [42] greater than 52 µM. The GI50 [43] was 9.24 µM, the TGI [43] was 36.3 µM and the GI50 [44] was 2.99 µM. For the same compound, the TGI [44] was 14.8 µM, the GI50 [45] was 12.6 µM and the TGI [45] was greater than 52 µM. The GI50 [46] was 8.47 µM, the TGI [46] was 31.5 µM and the GI50 [47] was 3.7 µM. For the same compound, the TGI [47] was 12.4 µM, the GI50 [48] was 7.82 µM and the TGI [48] was 51.5 µM. It also gave a GI50 [49] of 14.5 µM, a TGI [49] greater than 52 µM and a GI50 [50] of 4.85 µM. It also gave a TGI [50] of 31.1 µM, a GI50 [51] of 6.59 µM and a TGI [51] of 30.3 µM. For the same compound, the GI50 [52] was 8.06 µM, the TGI [52] was greater than 52 µM and the GI50 [53] was 6.98 µM. For the same compound, the TGI [53] was 47.1 µM, the GI50 [54] was 15.8 µM and the TGI [54] was greater than 52 µM. It also gave a GI50 [55] of 6.76 µM, a TGI [55] of 36.4 µM and a GI50 [56] of 10.5 µM. It also gave a TGI [56] of 42.1 µM, a GI50 [57] of 9.25 µM and a TGI [57] greater than 52 µM. It also gave a GI50 [58] of 5.28 µM and a TGI [58] of 39.3 µM.
